Laboratory results: patent publication US11613533B2, “Compounds useful for inhibiting RET kinase” (Eli Lilly and Company, priority 2020, dated 2023)

Tests used:
[1] = target: T1, V804M mutant RET kinase (N-terminal GST tagged recombinant human V804M mutant RET cytoplasmic domain, aa 658-end) (Homo sapiens, UniProt P07949, V804M); assay: RET enzyme assay (HTRF KinEASE TK), V804M; assay type: biochemical; conditions: 1 mM ATP, 40 min incubation at 22° C.
T1 construct: human V804M mutant RET cytoplasmic domain (aa 658-end); GST (N); purchased Millipore 14-760
T1 sequence (P07949 658-1114 V804M limits assumed): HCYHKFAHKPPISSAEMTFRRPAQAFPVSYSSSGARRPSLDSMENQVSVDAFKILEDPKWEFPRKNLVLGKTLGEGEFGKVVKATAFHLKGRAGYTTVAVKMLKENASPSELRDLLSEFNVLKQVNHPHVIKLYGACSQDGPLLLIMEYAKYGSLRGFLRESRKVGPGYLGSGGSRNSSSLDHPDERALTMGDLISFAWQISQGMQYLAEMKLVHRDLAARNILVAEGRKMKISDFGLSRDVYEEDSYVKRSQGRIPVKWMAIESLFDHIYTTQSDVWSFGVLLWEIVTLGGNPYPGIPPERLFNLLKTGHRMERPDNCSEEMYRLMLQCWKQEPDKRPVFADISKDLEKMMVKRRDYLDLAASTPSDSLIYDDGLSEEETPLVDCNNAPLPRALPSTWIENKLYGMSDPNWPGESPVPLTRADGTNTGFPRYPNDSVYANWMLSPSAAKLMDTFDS
Procedure: Assay A: RET Enzyme Assay
Compounds of formulas I, II, or III are screened for their ability to inhibit wildtype, V804M, and G810S mutant RET kinase using CisBio's HTRF® KinEASE™TK assay technology. N-terminal GST tagged recombinant human RET cytoplasmic domain (aa 658-end) from Eurofins ([…]; Catalog No. 14-570M) or N-terminal GST tagged recombinant human V804M mutant RET cytoplasmic domain (aa 658-end) from Millipore (1.25 nM enzyme; Catalog No. 14-760) or N-Terminal GST-tagged recombinant human G810S (aa-658-end) (1.25 nM Enzyme; produced in insect cells) is incubated with 62.5 nM TK-substrate biotin (CisBio, part of Catalog No. 62TK0PEC) and 1 mM ATP along with test compound (0.4% final DMSO in the assay) in a 1× Cisbio enzymatic buffer consisting of […], 5 mM MgCl2, 0.04% BSA and 0.05% Tween20 in a volume of 10 μL. Compounds are typically prepared in a threefold serial dilution in DMSO and added to the assay to give the appropriate final concentration. After a 40-60 min (40 min for V804M, 60 min for WT and G810S) incubation at 22° C., the reaction is quenched by adding quench solution (10 μL) containing 7.8 nM Streptavidine-XL665 and 0.5×TK-ab-Cryptate in HTRF detection buffer (all from CisBio, part of Cat. No. 62TK0PEC). After a 60-80 min incubation (60 minutes for WT, 80 minutes for V804M and G810S) at 22° C., the extent of reaction is determined using a PHERastar plate reader via HTRF detection at excitation/emission 337/665 nm. Percent of inhibition is calculated with 0% inhibition referring to control conditions containing no compound (0.4% DMSO only) and 100% inhibition represented by conditions containing no enzyme. The % inhibition values are fit to a 4 parameter logistic curve, and the determined IC50 value is defined as the estimated concentration of inhibitor at the inflexion point of the fitted curve.

[2] = target: T2, KIF5B-RET mutant form G810S in HEK293 cells (Homo sapiens, UniProt P07949, G810S); assay: RET cell assay (In-Cell Western, phospho-RET Y1062), G810S; assay type: cell-based; conditions: HEK293, doxycycline-induced KIF5B-RET G810S, 1 hr compound treatment; read-out: EC50, inhibition of intracellular autophosphorylation of RET at tyrosine 1062, G810S cells
T2 construct: expressed in transfected cells; host or cells: HEK293; the other entry of the earlier key: KIF5B (P33176, Kinesin-1 heavy chain)
T2 sequence (P07949 713-1063 G810S limits assumed): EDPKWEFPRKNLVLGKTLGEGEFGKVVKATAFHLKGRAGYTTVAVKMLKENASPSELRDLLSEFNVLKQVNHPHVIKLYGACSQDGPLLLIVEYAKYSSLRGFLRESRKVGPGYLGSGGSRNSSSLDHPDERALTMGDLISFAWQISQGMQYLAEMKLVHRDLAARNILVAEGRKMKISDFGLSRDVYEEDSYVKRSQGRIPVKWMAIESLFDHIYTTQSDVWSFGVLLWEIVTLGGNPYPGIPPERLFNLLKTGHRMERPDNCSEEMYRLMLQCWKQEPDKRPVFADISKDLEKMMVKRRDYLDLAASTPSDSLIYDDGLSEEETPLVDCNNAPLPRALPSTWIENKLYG
Procedure: Compounds of formulas (I), (II), and (III) are screened for their ability to inhibit the intracellular autophosphorylation of RET at tyrosine 1062 as detected by In-Cell Western. HEK293 cells containing a doxycycline-inducible plasmid for inducible expression of KIF5B-RET WT and RET mutant forms V804M and G810S are seeded at 25,000 cells/well into black poly-D-lysine pre-coated 384-well plates (Corning, Catalog No. 356697). Expression of KIF5B-RET is induced with doxycycline at 1 μg/mL and cells are incubated at 37° C. overnight. Compounds are prepared in a threefold serial dilution in DMSO before further diluting 1:100 in media prior to the addition to the cells (0.1% final DMSO concentration). Compound treatment is performed for 1 hr at 37° C. followed by fixation of cells with 4% formaldehyde for 20 min at RT and cell permeabilisation with ice-cold MeOH for 10 min at RT. Cells are incubated with Intercept® blocking buffer (Li—COR, Catalogue No. 927-70010) for 1 hr at RT. Incubation with primary antibodies against human phospho-RET (Y1062) (R&D, Catalogue No. AF5009, 1/250 dilution) and human glyceraldehyde-3-phosphate dehydrogenase (clone 6C5, Merck, Catalog No. MAB374, 1/1000 dilution) are performed overnight at 4° C. Incubation with secondary antibodies IRDye® 800CW goat anti-rabbit IgG (Li—COR, Catalogue No. 926-32211, 1/1000 dilution) and IRDye® 680CW goat anti-mouse IgG (Li—COR, Catalogue No. 926-68070, 1/1000 dilution) are performed for 1 hr at RT. All antibody dilutions are done in Intercept® blocking buffer containing 0.05% Tween20. After washing cells with PBS-T (Cell Signaling technology, Catalogue No. 9809), the images are acquired on a Li—COR Odyssey LCx at 700 and 800 nm. Percent of DMSO control is calculated with 100% signal referring to control conditions containing no compound (0.4% DMSO only) and 0% signal represented by conditions containing control compound. The % of DMSO control values are fit to a 4 parameter logistic curve, and the determined EC50 value is defined as the estimated concentration of inhibitor at the inflexion point of the fitted curve.

Compound	IC50 [1] [nM]	EC50 [2] [nM]
CC(C(=O)Nc1cc(C2CC(C)(C)C2)no1)c1ccc(-c2nn(C(C)C)c(N)c2C(N)=O)cc1 (single isomer, unassigned; isomer 1) [Example 98, 5-Amino-3-[4-[2-[[3-(3,3-dimethylcyclobutyl)isoxazol-5-yl]amino]-1-methyl-2-oxo-ethyl]phenyl]-1-isopropyl-pyrazole-4-carboxamide, Isomer 1]	< 100	< 100
CC(C(=O)Nc1cc(-c2ccc(Cl)cc2Cl)no1)c1ccc(-c2nn(C(C)C)c(N)c2C(N)=O)cc1 (single isomer, unassigned; isomer 1) [Example 45, 5-Amino-3-[4-(1-[[3-(2,4-dichlorophenyl)-1,2-oxazol-5-yl]carbamoyl]ethyl)phenyl]-1-isopropylpyrazole-4-carboxamide, Isomer 1]	< 100	< 100

The next lines start with the values.

IC50 [1] [nM]	EC50 [2] [nM]	Compound
< 100	< 100	CC(C(=O)Nc1cc(C2(C)CC2)no1)c1ccc(-c2nn(C(C)C)c(N)c2C(N)=O)cc1 (single isomer, unassigned; isomer 1) [Example 35, 5-Amino-1-isopropyl-3-[4-(1-[[3-(1-methylcyclopropyl)-1,2-oxazol-5-yl]carbamoyl]ethyl)phenyl]pyrazole-4-carboxamide, Isomer 1]
< 100	< 100	CCC(C)(C)c1cc(NC(=O)C(C)c2ccc(-c3nn(C(C)C)c(N)c3C(N)=O)cc2)no1 (single isomer, unassigned; isomer 2) [Example 52, 5-Amino-1-isopropyl-3-[4-(1-[[5-(2-methylbutan-2-yl)-1,2-oxazol-3-yl]carbamoyl]ethyl)phenyl]pyrazole-4-carboxamide, Isomer 2]
< 100	< 100	CCC(C)(C)c1cc(NC(=O)C(C)c2ccc(-c3nn(C(C)C)c(N)c3C(N)=O)nc2)no1 (single isomer, unassigned; isomer 2) [Example 66, 5-Amino-1-isopropyl-3-[5-(1-[[5-(2-methylbutan-2-yl)-1,2-oxazol-3-yl]carbamoyl]ethyl)pyridin-2-yl]pyrazole-4-carboxamide, Isomer 2]
